As usually defined, the IC50 is the concentration needed to halve the response being measured. Lower therefore signals greater potency in that assay.

The target in assay [1] is Opioid receptors; mu/kappa/delta (Homo sapiens, UniProt P41145+P41143+P35372). As to the kind of experiment: Tested for the binding affinity against the opioid receptor in guinea pig brain using [3H]bremazocine. Further details: species or system Cavia porcellus. To be noted: target entry is the homologue from another species.
For assay [2], the target named is Mu-type opioid receptor (Cavia porcellus, UniProt P97266). The assay can be described thus: Tested for the binding affinity against the Mu opioid receptor in guinea pig brain using [3H]-DAMGO.
Mu-type opioid receptor, sequence (P97266 whole entry): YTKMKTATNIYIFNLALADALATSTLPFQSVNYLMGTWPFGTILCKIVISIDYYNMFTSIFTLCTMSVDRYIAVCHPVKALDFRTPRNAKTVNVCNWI
For assay [3], the target named is Kappa-type opioid receptor (Cavia porcellus, UniProt P41144). As to the kind of experiment: Tested for the binding affinity against the Kappa opioid receptor in guinea pig brain using [3H]U-69593.
Kappa-type opioid receptor, sequence (P41144 whole entry): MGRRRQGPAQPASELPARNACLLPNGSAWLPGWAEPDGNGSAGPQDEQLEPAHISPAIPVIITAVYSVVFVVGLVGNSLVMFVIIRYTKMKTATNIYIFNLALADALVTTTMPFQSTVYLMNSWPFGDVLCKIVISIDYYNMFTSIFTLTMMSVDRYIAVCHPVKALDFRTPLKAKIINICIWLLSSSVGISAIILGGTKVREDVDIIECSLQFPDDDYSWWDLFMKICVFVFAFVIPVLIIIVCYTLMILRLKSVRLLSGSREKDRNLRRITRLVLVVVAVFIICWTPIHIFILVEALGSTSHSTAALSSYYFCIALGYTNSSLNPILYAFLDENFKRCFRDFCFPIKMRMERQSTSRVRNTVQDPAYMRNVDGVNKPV

Consider `Oc1ccc2c3c1OC1[C@@H](OCc4ccc5ccccc5c4)CCC4(O)C(C2)N(CC2CC2)CCC314` (some centres not stated), for which the IC50 in assay [1] was found to be 4.7 nM; in assay [2], 1.2 nM; in assay [3] it was 1.4 nM.

As to `Oc1ccc2c3c1OC1[C@@H](OCc4cccc5ccccc45)CCC4(O)C(C2)N(CC2CC2)CCC314` (some centres not stated), the IC50 was 7.3 nM in assay [1], 1 nM in assay [2] and 4.4 nM in assay [3].

On to `Oc1ccc2c3c1OC1[C@@H](OCc4ccc(-c5ccccc5)cc4)CCC4(O)C(C2)N(CC2CC2)CCC314` (some centres not stated), for which the half-inhibitory concentration (IC50) in assay [1] stood at 28 nM; in assay [2], 10 nM; in assay [3] it was 12 nM.

As to `Oc1ccc2c3c1OC1[C@@H](OCc4ccccc4)CCC4(O)C(C2)N(CC2CC2)CCC314` (some centres not stated), the IC50 was 1.5 nM in assay [1], 0.3 nM in assay [2] and 0.6 nM in assay [3].

Regarding `Oc1ccc2c3c1OC1[C@@H](OCc4c5ccccc5cc5ccccc45)CCC4(O)C(C2)N(CC2CC2)CCC314` (some centres not stated), the IC50 amounted to 45 nM in assay [1], 6.6 nM in assay [2] and 34 nM in assay [3].

For the compound `Oc1ccc2c3c1OC1[C@H](OCc4ccc5ccccc5c4)CCC4(O)C(C2)N(CC2CC2)CCC314` (some centres not stated), the IC50 was 5 nM in assay [1], 1.7 nM in assay [2] and 1.5 nM in assay [3].

Turning to `Oc1ccc2c3c1OC1[C@H](OCc4ccc(-c5ccccc5)cc4)CCC4(O)C(C2)N(CC2CC2)CCC314` (some centres not stated), the IC50 in assay [1] turned out to be 3.3 nM; in assay [2], 0.7 nM; in assay [3] it was 1.5 nM.

With `Oc1ccc2c3c1OC1[C@H](OCc4ccccc4)CCC4(O)C(C2)N(CC2CC2)CCC314` (some centres not stated), the IC50 in assay [1] amounted to 3.4 nM; in assay [2], 2.4 nM; in assay [3] it was 2 nM.

As for `Oc1ccc2c3c1OC1[C@H](OCc4c5ccccc5cc5ccccc45)CCC4(O)C(C2)N(CC2CC2)CCC314` (some centres not stated), the IC50 in assay [1] was found to be 71 nM; in assay [2], 16 nM; in assay [3], 27 nM.

Turning to `Oc1ccc2c3c1OC1[C@H](OCc4cccc5ccccc45)CCC4(O)C(C2)N(CC2CC2)CCC314` (some centres not stated), the 50% inhibitory concentration (IC50) in assay [1] turned out to be 11 nM; in assay [2] it was 3.1 nM; in assay [3], 6.1 nM.

Consider `O=C(COC1CCC2(O)C3Cc4ccc(O)c5c4C2(CCN3CC2CC2)C1O5)C1[C@H]2C[C@@H]3C[C@@H](C[C@H]1C3)C2` (some centres not stated), for which the IC50 amounted to 13 nM in assay [1], 6.6 nM in assay [2] and 3.3 nM in assay [3].

Turning to `Oc1ccc2c3c1O[C@H]1[C@H](O)CC[C@@]4(O)[C@@H](C2)N(CC2CC2)CC[C@]314` (stereo in doubt; 6), the values for the half-inhibitory concentration (IC50) in assay [2] and in assay [3] were 1.1 nM and 2.6 nM, respectively.

`Oc1ccc2c3c1O[C@H]1[C@H](O)CC[C@@]4(O)[C@@H](C2)N(CC2CC2)CC[C@]314` (stereo in doubt; 7): the figures for the 50% inhibitory concentration (IC50) in assay [2] and in assay [3] were 0.5 nM and 1.8 nM, respectively.

Values taken from ChEMBL document CHEMBL1127807 (J Med Chem, 1994).
